# Test results as given in patent US20070071672A1, “Use of metal tricarbonyl complexes as radiotherapeutic chemotoxic agents” (priority 2003, published 2007).
# Tests used:
# [1] = system: MDA-MB-4355 Breast Cancer Cells; test: XTT cell proliferation assay, breast cancer cells; parameters: species or system human; settings: 200 μM based on Re, 24 h
# Procedure: (§1) In a typical experiment (see FIG. 10) an average of 2000 cells were grown in microtiter plates (tissue culture grade, 96 wells, flat bottom) in a final volume of 100 μL culture medium per well in a humidified-atmosphere (37° C., >6.5% CO2). After 24 h the rhenium complex was added the wells (final concentrations 200 μM based on Re) and the cells were grown for further 24 h under a humidified atmosphere. After the incubation period 50 μL of the XTT labeling mixture were added to each well. The plates were incubated again for 4 h. After the this final incubation period the spectrophotometrical absorbance (optical density OD) of each well was measured at 450 nm.
# (§2) Control experiments were performed as described above without the addition of the rhenium compounds. Blanks were obtained by adding 50 μL of H2O instead of the XTT labeling mixture. Experiments were done in double and the results represent the average.
# (§3) The % of cell survival was calculated base on the relative OD of the samples. Maximum control OD was set to 100% cell survival.
# ΦX174 plasmid DNA [2] = test: Interaction with ΦX174 plasmid DNA, gel electrophoretic mobility shift; type: binding; settings: [complex]/[bp] 0.018-1.8/1, water, 37° C., 22 h, agarose gel
# Procedure: (§4) ΦX174 plasmids were purchased from Promega and used without further purification. ΦX174 RF plasmid DNA (0.1 mg) was mixed with the corresponding rhenium complexes in H2O at [complex]/[bp] 0.018-1.8/1. The mixtures were incubated in water at 37° C. for 22 h in the dark before analyzing by gel electrophoresis. The pH of the mixtures remained constant at ≈7 in all cases.
# (§5) DNA binding was examined by gel electrophoretic mobility shift assays through 9 cm 0.75% agarose slab gels with TAE running buffer. The gels were run at RT, with voltages varying between 50 and 75 V. Running time depended upon the voltage and were usually between 1.5-2 h. The resultant gels were stained with ethidium bromide in the buffer at a concentration of ≈0.3 μg/mL. Bands were visualized by […] UV transillumination equipped with a digital camera.
# ΦX174 plasmid DNA [3] = test: Stability of the [M(CO)3]+ ΦX174 plasmid DNA adduct, histidine challenge; type: binding; settings: 100-fold excess of histidine
# Procedure: as §4, §5
# Complexes 1 and 7 were incubated with ΦX174 plasmid DNA as described in Example 6. Subsequently, the plasmid was challenged with histidine to cleave the complexes from ΦX174 plasmid DNA.
# [4] = system: OVMZ-6-WT Ovarian Cancer Cells; test: XTT cell proliferation assay, ovarian cancer cells; parameters: species or system human; settings: 200 μM based on Re, 24 h
# Procedure: as §1, §2, §3
# (§6) The procedure is as described in Example 10 and FIG. 10. Only the cancer cell line varies.
# [5] = system: B16 F1 mouse melanoma cells; test: XTT cell proliferation assay, melanoma cells; settings: 200 μM based on Re (lower for poorly soluble complexes), 24 h
# Procedure: as §1, §2, §3, §6
Compound,cytotoxicity (% of cell survival) [1],scrambling (structural change) of ΦX174 plasmid DNA (ΦX174 plasmid DNA [2]),release of complex from ΦX174 plasmid DNA by histidine (ΦX174 plasmid DNA [3]),cytotoxicity (% of cell survival) [4],cytotoxicity (% of cell survival) [5]
[Re(9-MeG)2(H2O) (CO)3] (ClO4) [Complex 3],inhibit cell proliferation,,,,
"N.N.[Cl][Pt][Cl] [cisplatin, reference compound]",,increased amount of scrambling,,,
(Et4N)2[ReBr3(CO)3] [Complex 1],inhibit cell proliferation,,no release could be observed,inhibits cell proliferation,strongly inhibit cell proliferation
